Source: patent US9328138B2 (priority 2011, dated 2016)
Structures can show the parent of a compound that is named as a salt.

What was measured:
[1] = target: T1, HCV genotype 1b (BK) NS3 modified enzyme with a R155K mutation (Hepatitis C virus genotype 1b, UniProt P26663, R1181K); assay: HCV NS3 protease time-resolved fluorescence (TRF) assay, genotype 1b R155K; type: biochemical; settings: Ki 1b R155K
T1 construct: HCV genotype 1b (BK) NS3 modified enzyme
Procedure, shortened: (§1)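 Time-resolved fluorescence, ex 340/em 615 nm, 400 μs delay; IC50 by four-parameter fit. Enzyme preincubated with compound 10 min, then TRF substrate 25 nM final added and reaction run 6 h at RT. Buffer HEPES pH 7.5 with NaCl, glycerol, Triton X-100, DTT, PEG 8000.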

[2] = target: HCV NS3 protease genotype 3a (3A-1) (Hepatitis C virus genotype 3a, UniProt Q81258); assay: HCV NS3 protease time-resolved fluorescence (TRF) assay, genotype 3a; type: biochemical; settings: Ki 3a
Procedure, shortened: as §1

[3] = first of two values printed in the cell (not explained)
[4] = second of two values printed in the cell (not explained)
[5] = genotype 1b (BK) NS3 R155K, single value

`C=C[C@@H]1CC1(NC(=O)[C@@H]1C[C@@H]2CN1C(=O)[C@H](C(C)(C)C)NC(=O)O[C@@H]1C[C@H]1CCCCCc1c(nc3ccccc3c1OC1C3COCC1CN(CCOC)C3)O2)C(=O)NS(=O)(=O)C1(C)CC1` (stereo partly drawn) [Example 257, 9-{[(1aR,5S,8S,10R,22aR)-5-tert-butyl-8-{[(1R,2S)-2-ethenyl-1-{[1-methylcyclopropyl)sulfonyl]carbamoyl}cyclopropyl]carbamoyl}-3,6-dioxo-1,1a,3,4,5,6,9,10,18,19,20,21,22,22a-tetradecahydro-8H-7,10-methanocyclopropa[18,19][1,10,3,6]dioxadiazacyclononadecino[11,12-b]quinolin-17-yl]oxy}-7-(2-methoxyethyl)-3-oxa-7-azoniabicyclo[3.3.1]nonane formate] was tested, and the Ki [1, 3] was 0.032 nM, the Ki [1, 4] was 0.23 nM and the Ki [2] was 3.9 nM.

In the case of `C=C[C@@H]1C[C@]1(NC(=O)[C@@H]1C[C@@H]2CN1C(=O)[C@H](C(C)(C)C)NC(=O)O[C@H]1C[C@@H]1CCCCCc1c(nc3ccncc3c1OC1CCN(C)CC1)O2)C(=O)NS(=O)(=O)C1(C)CC1` [Example 295, (1aS,5S,8S,10R,22aS)-5-tert-butyl-N-{(1R,2S)-2-ethenyl-1-[(1-methylcyclopropanesulfonamido)carbonyl]cyclopropyl}-17-[(1-methylpiperidin-4-yl)oxy]-3,6-dioxo-1,1a,3,4,5,6,9,10,18,19,20,21,22,22a-tetradecahydro-8H-7,10-methanocyclopropa[18,19][1,10,3,6]dioxadiazacyclononadecino[11,12-b][1,6]naphthyridine-8-carboxamide], the Ki [1, 5] is reported as 0.082 nM and the Ki [2] is reported as 1.07 nM.

With `C=C[C@@H]1C[C@]1(NC(=O)[C@@H]1C[C@@H]2CN1C(=O)[C@H](C(C)(C)C)NC(=O)O[C@@H]1C[C@H]1CCCCCc1c(nc3ccccc3c1O[C@@H]1C[C@H]3C[C@@H]1CN3CCOC)O2)C(=O)NS(=O)(=O)C1(C)CC1` [Example 231, (1aR,5S,8S,10R,22aR)-5-tert-butyl-N-[(1R,2S)-2-ethenyl-1-{[(1-methylcyclopropyl)sulfonyl]carbamoyl}cyclopropyl]-17-{[(1R,4R,5R)-2-(2-methoxyethyl)-2-azabicyclo[2.2.1]hept-5-yl]oxy}-3,6-dioxo-1,1a,3,4,5,6,9,10,18,19,20,21,22,22a-tetradecahydro-8H-7,10-methanocyclopropa[18,19][1,10,3,6] dioxadiazacyclononadecino[11,12-b]quinoline-8-carboxamide] the Ki [1, 5] was 0.13 nM and the Ki [2] was 1.8 nM.

`C=C[C@@H]1C[C@]1(NC(=O)[C@@H]1C[C@@H]2CN1C(=O)[C@H](C(C)(C)C)NC(=O)O[C@@H]1C[C@H]1CCCCCc1c(nc3cc(C)ccc3c1OCCCNC1CC1)O2)C(=O)NS(=O)(=O)C1(C)CC1` [Example 145, (1aR,5S,8S,10R,22aR)-5-tert-butyl-17-[3-(cyclopropylamino)propoxy]-N-[(1R,2S)-2-ethenyl-1-{[(1-methylcyclopropyl)sulfonyl]carbamoyl}cyclopropyl]-14-methyl-3,6-dioxo-1,1a,3,4,5,6,9,10,18,19,20,21,22,22a-tetradecahydro-8H-7,10-methanocyclopropa[18,19][1,10,3,6]dioxadiazacyclononadecino[11,12-b]quinoline-8-carboxamide] gave a Ki [1, 5] of 0.079 nM and a Ki [2] of 1.2 nM.

`C=C[C@@H]1C[C@]1(NC(=O)[C@@H]1C[C@@H]2CN1C(=O)[C@H](C1CCCCC1)NC(=O)O[C@@H]1C[C@H]1CCCCCc1c(nc3ccccc3c1OC1CC3COCC(C1)N3CC)O2)C(=O)NS(=O)(=O)C1(C)CC1` (stereo partly drawn) [Example 290, 7-{[(1aR,5S,8S,10R,22aR)-5-cyclohexyl-8-{[(1R,2S)-2-ethenyl-1-{[(1-methylcyclopropyl)sulfonyl]carbamoyl}cyclopropyl]carbamoyl}-3,6-dioxo-1,1a,3,4,5,6,9,10,18,19,20,21,22,22a-tetradecahydro-8H-7,10-methanocyclopropa[18,19][1,10,3,6]dioxadiazacyclononadecino[11,12-b]quinolin-17-yl]oxy}-9-ethyl-3-oxa-9-azoniabicyclo[3.3.1]nonane formate] was tested, and the Ki [1, 3] was 0.012 nM, the Ki [1, 4] was 0.125 nM and the Ki [2] was 1.14 nM.

`C=C[C@@H]1C[C@]1(NC(=O)[C@@H]1C[C@@H]2CN1C(=O)[C@H](C1CCCCC1)NC(=O)O[C@@H]1C[C@H]1CCCCCc1c(nc3ccccc3c1OCCCN1CCCOCC1)O2)C(=O)NS(=O)(=O)C1(C)CC1` [Example 168, (1aR,5S,8S,10R,22aR)-5-cyclohexyl-N-[(1R,2S)-2-ethenyl-1-{[(1-methylcyclopropyl)sulfonyl]carbamoyl}cyclopropyl]-17-[3-(1,4-oxazepan-4-yl)propoxy]-3,6-dioxo-1,1a,3,4,5,6,9,10,18,19,20,21, 22,22a-tetradeca hydro-8H-7,10-methanocyclopropa[18,19][1,10,3,6] dioxadiazacyclononadecino[11,12-b] quinoline-8-carboxamide] showed a Ki [1, 5] of 0.078 nM and a Ki [2] of 1.3 nM.

With `C=C[C@@H]1C[C@]1(NC(=O)[C@@H]1C[C@@H]2CN1C(=O)[C@H](C(C)(C)C)NC(=O)O[C@@H]1C[C@H]1CCCCCc1c(nc3ccccc3c1OCCCN1CCC(C)(O)C1)O2)C(=O)NS(=O)(=O)C1(C)CC1` (stereo partly drawn) [Example 209, (1aR,5S,8S,10R,22aR)-5-tert-butyl-N-[(1R,2S)-2-ethenyl-1-{[(1-methylcyclopropyl)sulfonyl]carbamoyl}cyclopropyl]-17-[3-(3-hydroxy-3-methylpyrrolidin-1-yl)propoxy]-3,6-dioxo-1,1a,3,4,5,6,9,10,18,19,20,21,22,22a-tetradeca hydro-8H-7,10-methanocyclopropa[18,19][1,10,3,6] dioxadiazacyclononadecino[11,12-b] quinoline-8-carboxamide] the Ki [1, 5] was 0.056 nM and the Ki [2] was 0.55 nM.

For `C=C[C@@H]1C[C@]1(NC(=O)[C@@H]1C[C@@H]2CN1C(=O)[C@H](C(C)(C)C)NC(=O)O[C@@H]1C[C@H]1CCCCCc1c(nc3ccccc3c1OCCc1ccccn1)O2)C(=O)NS(=O)(=O)C1(C)CC1` [Example 217, (1aR,5S,8S,10R,22aR)-5-tert-butyl-N-[(1R,2S)-2-ethenyl-1-{[(1-methylcyclopropyl)sulfonyl]carbamoyl}cyclopropyl]-3,6-dioxo-17-[2-(pyridin-2-yl)ethoxy]-1,1a,3,4,5,6,9,10,18,19,20,21,22,22a-tetradecahydro-8H-7,10-methanocyclopropa[18,19][1,10,3,6] dioxadiazacyclononadecino[11,12-b]quinoline-8-carboxamide], the Ki [1, 5] was 0.27 nM and the Ki [2] was 7.1 nM.

Work on `C=C[C@@H]1C[C@]1(NC(=O)[C@@H]1C[C@@H]2CN1C(=O)[C@H](C1CCCC1)NC(=O)O[C@@H]1CCC[C@H]1CC/C=C/Cc1c(nc3ccccc3c1OCCC(C)(C)O)O2)C(=O)NS(=O)(=O)C1(C)CC1` [Example 49, (3aR,7S,10S,12R,21E,24aS)-7-cyclopentyl-N-[(1R,2S)-2-ethenyl-1-{[(1-methylcyclopropyl)sulfonyl]carbamoyl}cyclopropyl]-19-(3-hydroxy-3-methylbutoxy)-5,8-dioxo-1,2,3,3a,5,6,7,8,11,12,20,23,24,24a-tetradecahydro-10H-9,12-methanocyclo penta[18,19][1,10,3,6]dioxadiazacyclo nonadecino[11,12-b]quinoline-10-carboxamide] yielded a Ki [1, 5] of 0.16 nM and a Ki [2] of 1.5 nM.

Compound `CC[C@@H]1C[C@]1(NC(=O)[C@@H]1C[C@@H]2CN1C(=O)[C@H](C1CCCC1)NC(=O)O[C@@]1(C)CCC[C@@H]1CCCCCc1c(nc3ccccc3c1O)O2)C(=O)NS(=O)(=O)C1CC1` [Example 31, (3aS,7S,10S,12R,24aS)-7-cyclopentyl-N-{(1R,2R)-1-[(cyclopropylsulfonyl)carbamoyl]-2-ethylcyclopropyl}-19-hydroxy-3a-methyl-5,8-dioxo-1,2,3-3a,5,6,7,8,11,12,20,21,22,23,24,24a-hexadeca hydro-10H-9,12-methanocyclopenta[18,19] [1,10,3,6]dioxadiazacyclononadecino[11,12-b] quinoline-10-carboxamide] has a Ki [1, 5] of 4.1 nM and a Ki [2] of 23 nM.

`C=C[C@@H]1C[C@]1(NC(=O)[C@@H]1C[C@@H]2CN1C(=O)[C@H](C(C)(C)C)NC(=O)O[C@@H]1CCC[C@H]1CC/C=C/Cc1c(nc3ccccc3c1OC)O2)C(=O)NS(=O)(=O)C1CC1` [Example 6, (3aR,7S,10S,12R,21E,24aS)-7-tert-butyl-N-{(1R,2S)-1-[(cyclopropylsulfonyl)carbamoyl]-2-ethenylcyclopropyl}-19-methoxy-5,8-dioxo-1,2,3,3a,5,6,7,8,11,12,20,23,24,24a-tetradecahydro-10H-9,12-methanocyclopenta[18,19][1,10,3,6] dioxadiazacyclononadecino[11,12-b]quinoline-10-carboxamide] was tested, and the Ki [1, 5] was 0.1 nM and the Ki [2] was 1.3 nM.

In the case of `C=C[C@@H]1C[C@]1(NC(=O)[C@@H]1C[C@@H]2CN1C(=O)[C@H](C(C)(C)C)NC(=O)O[C@]1(C)C[C@H]1CCCCCc1c(nc3ccccc3c1OCCN1CCOCC1)O2)C(=O)NS(=O)(=O)C1(C)CC1` [Example 101, (1aR,5S,8S,10R,22aR)-5-tert-butyl-N-[(1R,2S)-2-ethenyl-1-{[(1-methylcyclopropyl)sulfonyl]carbamoyl}cyclopropyl]-1a-methyl-17-[2-(morpholin-4-yl)ethoxy]-3,6-dioxo-1,1,a, 3,4,5,6,9,10,18,19,20,21,22,22a-tetradecahydro-8H-7,10-methano-cyclopropa[18,19][1,10,3,6]dioxa diazacyclononadecino[11,12-b] quinoline-8-carboxamide], the Ki [1, 5] is reported as 0.09 nM and the Ki [2] is reported as 0.96 nM.
